The text below walks through data of patent US8809333B2, “Imidazole, pyrazole, and triazole derivatives useful as antibacterial agents” (Pfizer Inc., priority 2011, dated 2014).

The target of test [1] is T1, Pseudomonas aeruginosa LpxC enzyme (Pseudomonas aeruginosa, UniProt P47205).
T1 construct: made in house; host or cells: E. coli
T1 sequence (P47205 1-303): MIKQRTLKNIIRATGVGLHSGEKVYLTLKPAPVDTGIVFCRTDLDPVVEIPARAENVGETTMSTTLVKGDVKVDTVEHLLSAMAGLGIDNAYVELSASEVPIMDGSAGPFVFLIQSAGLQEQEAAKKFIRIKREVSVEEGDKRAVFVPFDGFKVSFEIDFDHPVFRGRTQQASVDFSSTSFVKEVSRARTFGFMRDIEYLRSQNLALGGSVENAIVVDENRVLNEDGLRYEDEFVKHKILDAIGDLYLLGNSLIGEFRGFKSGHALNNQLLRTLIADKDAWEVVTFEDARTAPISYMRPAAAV
The test can be described thus: IC50 assay, LpxC enzyme from P. aeruginosa (BioTrove RapidFire mass spectrometry). Type of test: biochemical. Put shortly:
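P. aeruginosa LpxC reaction run 1 hour, stopped with 1 N HCl, and substrate-to-product conversion quantified by RapidFire mass spectrometry. IC50 calculated from percent conversion using a no-enzyme control.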

The subject of test [2] is Escherichia coli EC-1: VOGEL, mouse virulent. In words: MIC determination (CLSI), EC-1. Format: cell-based. Conditions: for MIC: Escherichia coli, read-out: EC-1 (MIC). Put shortly:
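Broth dilution MIC per CLSI M7-A8, with 2-fold compound dilutions incubated overnight with a standard inoculum. MIC is the lowest concentration visibly inhibiting growth versus drug-free control; tested in duplicate, reporting the lower value when within 2-fold, with QC organisms and reference compounds required in range.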

In test [3] the test system is Klebsiella pneumoniae: Ciprofloxacin-resistant isolate, expresses ESBL, clinical isolate (KP-3700). In words: MIC determination (CLSI), KP-3700. Type of test: cell-based. As to conditions: overnight incubation, lower of duplicate values. Put shortly:
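Broth dilution MIC per CLSI M7-A8 against the ciprofloxacin-resistant, ESBL-expressing clinical isolate, 2-fold concentration steps, overnight incubation, visual read of lowest growth-inhibiting concentration. Tested in duplicate; lower value reported when within 2-fold; control organisms and reference compounds required within range.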

For test [4], the system named is Pseudomonas aeruginosa UI-18: Wild-type (PA-7). The test can be described thus: MIC determination (CLSI), PA-7. Type of test: cell-based. Conditions: Pseudomonas aeruginosa UI-18 wild-type, overnight incubation, lower of duplicate values; for MIC: read-out: PA-7 (MIC). Put shortly:
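Broth dilution MIC per CLSI M7-A8, using 2-fold compound dilutions incubated overnight; MIC is the lowest concentration with no visible growth versus the drug-free control. Run in duplicate, lower value reported when within 2-fold. Control organisms and reference compounds were included for QC.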

The subject of test [5] is Acinetobacter baumannii/haemolyticus: Multidrug-resistant clinical isolate (AB-3167). In words: MIC determination (CLSI), AB-3167. Format: cell-based. Conditions: Acinetobacter baumannii/haemolyticus multidrug-resistant clinical isolate, overnight incubation, lower of duplicate values; for MIC: read-out: AB-3167 (MIC). Put shortly: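 Broth dilution MIC per CLSI M7-A8, 2-fold concentration steps, overnight incubation, visual read of lowest concentration inhibiting growth versus drug-free control. Tested in duplicate; lower value reported if within 2-fold, otherwise repeated; QC organisms and reference drugs required within range.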

Setting [6] is: P. aeruginosa LpxC enzyme 0.1 nM, 25° C., 1 hour, pH 8.0, read-out: PA: IC50.

In brackets after ≈: the same amount, converted by molar mass. Where two headings read alike, the source gives them in different places.

As for `CC(CCn1cc(-c2ccccc2C#N)cn1)(C(=O)NO)S(C)(=O)=O` (stereo not drawn) [Example 46, 4-[4-(2-cyanophenyl)-1H-pyrazol-1-yl]-N-hydroxy-2-methyl-2-(methylsulfonyl)butanamide], the IC50 (commonly the concentration at which inhibition is half-maximal) in test [1] (setting [6]) is 72.5 nM. Further, the minimal inhibitory concentration (MIC) (usually the least concentration at which growth counts as inhibited) is 4 µg/mL (≈ 11 µM) in test [2], 32 µg/mL (≈ 88.3 µM) in test [4] and greater than 64 µg/mL in test [5]. In addition, the “KP-3700 (MIC)” value in test [3] was greater than 64.0 µg/mL.
The matching figures for `CCc1nc2ccc(-c3cnn(CCC(C)(C(=O)NO)S(C)(=O)=O)c3)cc2s1` (stereo not drawn) [Example 91, 4-[4-(2-ethyl-1,3-benzothiazol-6-yl)-1H-pyrazol-1-yl]-N-hydroxy-2-methyl-2-(methylsulfonyl)butanamide]: 2.55 nM, 32 µg/mL (≈ 75.7 µM), 16 µg/mL (≈ 37.9 µM), greater than 64 µg/mL and greater than 64.0 µg/mL.
On to `CC(CCn1cc(COc2ccc(C(F)(F)F)cc2)nn1)(C(=O)NO)S(C)(=O)=O` (stereo not drawn) [Example 33, N-hydroxy-2-methyl-2-(methylsulfonyl)-4-(4-{[4-(trifluoromethyl)phenoxy]methyl}-1H-1,2,3-triazol-1-yl)butanamide], for which the concentration for half-maximal inhibition (IC50) in test [1] (setting [6]) came to 9.6 nM. Further, the MIC was 64 µg/mL (≈ 147 µM) in test [2], 32 µg/mL (≈ 73.3 µM) in test [4] and greater than 64 µg/mL in test [5]. The “KP-3700 (MIC)” value in test [3] was greater than 64.0 µg/mL.
Take `CC(CCn1cc(-c2cccc(O)c2)cn1)(C(=O)NO)S(C)(=O)=O` (stereo not drawn) [Example 44, N-hydroxy-4-[4-(3-hydroxyphenyl)-1H-pyrazol-1-yl]-2-methyl-2-(methylsulfonyl)butanamide]: the IC50 in test [1] (setting [6]) was found to be 21.1 nM. The minimum inhibitory concentration (MIC) in test [2], in test [4] and in test [5] was greater than 64 µg/mL throughout. For the same compound, the “KP-3700 (MIC)” value in test [3] was greater than 64.0 µg/mL.
As to `CC(CCn1cc(-c2ccc3nc(N)sc3c2)cn1)(C(=O)NO)S(C)(=O)=O` (stereo not drawn) [Example 80, 4-[4-(2-amino-1,3-benzothiazol-6-yl)-1H-pyrazol-1-yl]-N-hydroxy-2-methyl-2-(methylsulfonyl)butanamide], in test [1] (setting [6]), the IC50 worked out at 75.8 nM. Moreover, the MIC in test [2], in test [4] and in test [5] was greater than 64 µg/mL in each case. Moreover, the “KP-3700 (MIC)” value in test [3] is greater than 64.0 µg/mL.
For the compound `C[C@@](CCn1cc(-c2ccc(F)c(F)c2)nn1)(C(=O)NO)S(C)(=O)=O` [Example 20, (2R)-4-[4-(3,4-difluorophenyl)-1H-1,2,3-triazol-1-yl]-N-hydroxy-2-methyl-2-(methylsulfonyl)butanamide], the IC50 in test [1] was 1.87 nM. For the same compound, the MIC in test [2] is 32 µg/mL (≈ 85.5 µM); in test [4], 4 µg/mL (≈ 10.7 µM); in test [5], greater than 64 µg/mL. In addition, the “KP-3700 (MIC)” value in test [3] is greater than 64.0 µg/mL.
With `CSc1cccc(OCc2cn(CCC(C)(C(=O)NO)S(C)(=O)=O)nn2)c1` (stereo not drawn) [Example 36, N-hydroxy-2-methyl-4-(4-{[3-(methylsulfanyl)phenoxy]methyl}-1H-1,2,3-triazol-1-yl)-2-(methylsulfonyl)butanamide], in test [1] (setting [6]), the half-inhibitory concentration (IC50) is 6.39 nM. Also, the minimum inhibitory concentration (MIC) in test [2] is greater than 64 µg/mL; in test [4] it was 32 µg/mL (≈ 77.2 µM); in test [5] it was greater than 64 µg/mL. For the same compound, the “KP-3700 (MIC)” value in test [3] was greater than 64.0 µg/mL.
In the case of `CC(C)(C)c1ccccc1SCc1cn(CCC(C)(C(=O)NO)S(C)(=O)=O)nn1` (stereo not drawn) [Example 28, 4-(4-{[(2-t-butylphenyl)sulfanyl]methyl}-1H-1,2,3-triazol-1-yl)-N-hydroxy-2-methyl-2-(methylsulfonyl)butanamide], the half-inhibitory concentration (IC50) in test [1] (setting [6]) was determined as 174 nM. Moreover, the MIC in test [2], in test [4] and in test [5] was greater than 64 µg/mL in each case. Further, in test [3], the “KP-3700 (MIC)” value was greater than 64.0 µg/mL.
In the case of “(2R)-4-[4-(2-fluoro-4-methoxyphenyl)-1H-1,2,3-triazol-1-yl]-N-hydroxy-2-methyl-2-(methylsulfonyl)butanamide [Example 22]”, the IC50 in test [1] (setting [6]) came to 1.2 nM. The “EC-1 (MIC)” value in test [2] (Escherichia coli EC-1 VOGEL, mouse virulent, overnight incubation, lower of duplicate values) worked out at 4 µg/mL. Further, the “KP-3700 (MIC)” value in test [3] turned out to be 32 µg/mL. In addition, the “PA-7 (MIC)” value in test [4] worked out at 2 µg/mL. Besides, the “AB-3167 (MIC)” value in test [5] was greater than 64.0 µg/mL.
On to `CC(CCn1cc(-c2cccc(C#N)c2)cn1)(C(=O)NO)S(C)(=O)=O` (stereo not drawn) [Example 48, 4-[4-(3-cyanophenyl)-1H-pyrazol-1-yl]-N-hydroxy-2-methyl-2-(methylsulfonyl)butanamide], for which the IC50 in test [1] (setting [6]) stood at 29.3 nM. Moreover, the minimal inhibitory concentration (MIC) in test [2] was greater than 64 µg/mL; in test [4] it was 64 µg/mL (≈ 177 µM); in test [5], greater than 64 µg/mL. In addition, the “KP-3700 (MIC)” value in test [3] was greater than 64.0 µg/mL.
For `Cc1cnn(CC[C@](C)(C(=O)NO)S(C)(=O)=O)c1` [Example 5, (2R)—N-hydroxy-2-methyl-4-(4-methyl-1H-pyrazol-1-yl)-2-(methylsulfonyl)butanamide], the half-inhibitory concentration (IC50) in test [1] (setting [6]) is greater than 100 nM. Besides, the MIC was greater than 64 µg/mL in test [2], 32 µg/mL (≈ 116 µM) in test [4] and greater than 64 µg/mL in test [5]. For the same compound, the “KP-3700 (MIC)” value in test [3] was greater than 64.0 µg/mL.
Turning to `CCc1ccccc1SCc1cn(CCC(C)(C(=O)NO)S(C)(=O)=O)nn1` (stereo not drawn) [Example 32, 4-(4-{[(2-ethylphenyl)sulfanyl]methyl}-1H-1,2,3-triazol-1-yl)-N-hydroxy-2-methyl-2-(methylsulfonyl)butanamide], in test [1] (setting [6]), the 50% inhibitory concentration (IC50) worked out at 50.9 nM. Besides, the minimum inhibitory concentration (MIC) in test [2], in test [4] and in test [5] was greater than 64 µg/mL each time. For the same compound, the “KP-3700 (MIC)” value in test [3] is greater than 64.0 µg/mL.
As to `CC(CCn1cc(-c2cc(F)ccc2F)cn1)(C(=O)NO)S(C)(=O)=O` (stereo not drawn) [Example 56, 4-[4-(2,5-difluorophenyl)-1H-pyrazol-1-yl]-N-hydroxy-2-methyl-2-(methylsulfonyl)butanamide], the 50% inhibitory concentration (IC50) in test [1] (setting [6]) amounted to 6.75 nM. Besides, the MIC in test [2] is 32 µg/mL (≈ 85.7 µM); in test [4] it was 8 µg/mL (≈ 21.4 µM); in test [5] it was greater than 64 µg/mL. In test [3], the “KP-3700 (MIC)” value was greater than 64.0 µg/mL.
In test [1], `C[C@@](CCn1cc(-c2ccc(Cl)c(F)c2)nn1)(C(=O)NO)S(C)(=O)=O` [Example 23, (2R)-4-[4-(4-chloro-3-fluorophenyl)-1H-1,2,3-triazol-1-yl]-N-hydroxy-2-methyl-2-(methylsulfonyl)butanamide] registered a half-maximal inhibitory concentration (IC50) of 0.912 nM. Besides, the minimum inhibitory concentration (MIC) in test [2] was 8 µg/mL (≈ 20.5 µM); in test [4] it was 2 µg/mL (≈ 5.12 µM); in test [5], greater than 64 µg/mL. The “KP-3700 (MIC)” value in test [3] is 64 µg/mL.
For the compound `CCOc1ccc(-c2cnn(CCC(C)(C(=O)NO)S(C)(=O)=O)c2)cc1C#N` (stereo not drawn) [Example 78, 4-[4-(3-cyano-4-ethoxyphenyl)-1H-pyrazol-1-yl]-N-hydroxy-2-methyl-2-(methylsulfonyl)butanamide], the IC50 in test [1] (setting [6]) amounted to 21.7 nM. Besides, the MIC in test [2] was greater than 64 µg/mL; in test [4], 64 µg/mL (≈ 157 µM); in test [5] it was greater than 64 µg/mL. In addition, the “KP-3700 (MIC)” value in test [3] is greater than 64.0 µg/mL.
For the compound `Cc1cc(-c2cnn(CCC(C)(C(=O)NO)S(C)(=O)=O)c2)ccc1O` (stereo not drawn) [Example 50, N-hydroxy-4-[4-(4-hydroxy-3-methylphenyl)-1H-pyrazol-1-yl]-2-methyl-2-(methylsulfonyl)butanamide], in test [1] (setting [6]), the half-inhibitory concentration (IC50) was determined as 44.4 nM. Moreover, the minimum inhibitory concentration (MIC) in test [2], in test [4] and in test [5] was greater than 64 µg/mL in each case. Further, the “KP-3700 (MIC)” value in test [3] was greater than 64.0 µg/mL.
Consider `Cn1nccc1-c1ccc(-c2cnn(CCC(C)(C(=O)NO)S(C)(=O)=O)c2)cc1` (stereo not drawn) [Example 82, N-hydroxy-2-methyl-4-{4-[4-(1-methyl-1H-pyrazol-5-yl)phenyl]-1H-pyrazol-1-yl}-2-(methylsulfonyl)butanamide], for which, in test [1] (setting [6]), the IC50 stood at 3.29 nM. For the same compound, the minimum inhibitory concentration (MIC) in test [2] was 8 µg/mL (≈ 19.2 µM); in test [4], 16 µg/mL (≈ 38.3 µM); in test [5] it was greater than 64 µg/mL. Further, the “KP-3700 (MIC)” value in test [3] stood at 32 µg/mL.
With `COc1ccc(-c2cnn(CCC(C)(C(=O)NO)S(C)(=O)=O)c2)cc1OC` (stereo not drawn) [Example 65, 4-[4-(3,4-dimethoxyphenyl)-1H-pyrazol-1-yl]-N-hydroxy-2-methyl-2-(methylsulfonyl)butanamide], in test [1] (setting [6]), the half-maximal inhibitory concentration (IC50) came out at 93.2 nM. Further, the MIC in test [2], in test [4] and in test [5] was greater than 64 µg/mL throughout. Besides, in test [3], the “KP-3700 (MIC)” value was greater than 64.0 µg/mL.
